Values of other authors, collected in US7776886B2, “Cyclopropyl piperidine glycine transporter inhibitors” (Merck Sharp & Dohme Corp., priority 2004, dated 2010).

Assays:
[1] = schizophrenia patients poorly responsive to antipsychotic drugs
NMDA receptor = conditions: rat
[2] = mice

| Structure (SMILES) | effect on positive, negative and cognitive symptoms [1] | NMDA receptor activity (NMDA receptor) | NMDA receptor-dependent long-term potentiation (NMDA receptor) | pre-pulse inhibition (measure of sensory gating) [2] |
| --- | --- | --- | --- | --- |
| CNCC(=O)O [sarcosine] | beneficial effect | – | – | – |
| CN(CCC(Oc1ccc(-c2ccccc2)cc1)c1ccc(F)cc1)CC(=O)O (stereo not shown) [NFPS, (N-[3-(4′-fluorophenyl)-3-(4′-phenylphenoxy)propyl])sarcosine] | – | potentiates | potentiates | enhance pre-pulse inhibition |
